Data on three compounds can be found in patent US20010005721A1, “Heel crack healing composition and method therefor” (priority 1998, published 2001).

For series [1], the system named is cracks upon the heel and foot. Description: Trial Study Series A: active ingredient studies 1-4.

Take `C[C@]12CCC(=O)C=C1CC[C@@H]1[C@@H]2[C@@H](O)C[C@@]2(C)[C@H]1CC[C@]2(O)C(=O)CO` [Hydrocortisone]: the effectiveness result in series [1] (hydrocortisone concentration about 0.5% or more) was “most effective concentrations”; in series [1] (hydrocortisone concentration less than about 0.25%), “little worthwhile effect”. In series [1] (hydrocortisone concentration greater than about 0.75%), the healing speed result is listed as “promote a faster healing”. The “effectiveness (healing time)” value in series [1] (hydrocortisone concentration less than about 0.5%) is on record as “generally less effective, having a lengthened healing time”.
With `O=C(O)c1ccccc1O` [Salicylic acid], the values for the effectiveness result in series [1] (salicylic acid concentration about 4%) and in series [1] (salicylic acid concentration about 5%) were “most effective concentration” and “also an effective concentration”, respectively. Moreover, the “effectiveness / excessive exfoliation” value in series [1] (salicylic acid concentration about 8-9%) is “not as effective due to excessive exfoliation”. Further, the “effectiveness (exfoliation, healing time)” value in series [1] (salicylic acid concentration less than about 4% in the composition) was “generally less effective, promoting less exfoliation and having a lengthened healing time”. Also, in the series on heel cracks (about 10% by weight salicylic acid), the “defoliation versus therapeutic benefit” value is reported as “effects of rapid defoliation begin to exceed the therapeutic benefits”. The “effect of raising the salicylic acid component” value with heel cracks (salicylic acid over about 6% or 7% by weight) was “negative results characterized not only by a rapid defoliation of the affected areas”.
`[O]=[Zn]` [Zinc oxide]: in series [1] (zinc oxide concentration about 3%), the “healing of cracks upon the heel and foot” value is “optimal concentration”. In addition, the “healing properties of the composition” value in series [1] (zinc oxide concentration above about 5%) was “does not appear to affect the healing properties”. Moreover, the healing entry in series [1] (zinc oxide concentration less than about 1%) is listed as “some slight decrease in the healing”.
